Reference: patent publication US20130252813A1, “Herbicidal Compositions for Tolerant or Resistant Sugar Beet Crops” (Bayer CropScience AG, priority 1998, published 2013)
Counter-ions that a name gives are not always drawn.

Columns and labels:
Format in all cases: in vivo
Setaria viridis [1] = assay: Herbicidal action in sugar beet - field trial (Table 2); details: application in 2-4-leaf stage, scoring 3 weeks after application
Protocol: (§1) Transgenic sugar beet plants with resistance to one or more herbicides (A) were grown together with typical weed plants in the open in 2×5 m plots under natural field conditions; alternatively, the weed population established naturally while the sugar beet plants grew. Treatment with the compositions according to the invention and, for control purposes, with separate application of the active ingredients of the components alone, was carried out under standard conditions with a plot sprayer at an application rate of 200-300 liters of water per hectare in parallel trials in accordance with the scheme of Table 1, i.e. pre-sowing/pre-emergence, […] or post-emergence at the early, medium or late stage.
(§2) […] Damage and development of all aerial plant organs was recorded. The scoring was done using a percentage scale (100% activity=all plants dead; 50% activity=50% of the plants and green plant organs dead; 0% activity=no discernible effect=like control plot). The score values of in each case 4 plots were averaged.

transgenic sugar beet [2] = assay: Damage to transgenic sugar beet - field trial (Table 2); details: application in 2-4-leaf stage
Protocol: as §1
(§3) At 2, 4, 6 and 8 week intervals after application, the herbicidal activity of the active ingredients or active ingredient mixtures were scored visually by comparing the treated plots with untreated control plots. Damage and development of all aerial plant organs was recorded. The scoring was done using a percentage scale (100% activity=all plants dead; 50% activity=50% of the plants and green plant organs dead; 0% activity=no discernible effect=like control plot). The score values of in each case 4 plots were averaged.

Galium aparine [3] = assay: Herbicidal action in sugar beet crop (greenhouse experiment, Table 3); details: application in the 4-5-leaf stage, scoring 3 weeks after application
From the text: Seeds or rhizomes of monocotyledonous and dicotyledonous weeds are placed in sandy loam soil in cardboard pots, covered with soil and grown in the greenhouse under good growth conditions. […] The compositions according to the
Invention, which are formulated as wettable powders or as emulsion concentrates, are sprayed at various dosages onto the green plant organs at an application rate of 600 to 800 l of water per ha (converted). After the experimental plants have remained in the greenhouse for approx. 3 to 4 weeks under optimal growth conditions, the effect of the preparations is scored visually in comparison with untreated controls. The compositions according to the invention also have a good herbicidal activity against a broad spectrum of economically Important grass weeds and broad-leaved weeds when applied post-emergence.

transgenic sugar beet [4] = assay: Damage to transgenic sugar beet (greenhouse experiment, Table 3); details: greenhouse Table 3, application in the 4-5-leaf stage
Echinochloa crus-galli = assay: Herbicidal action and selectivity in sugar beet crop (field trial, Table 4); details: application in 3-leaf stage, scoring 4 weeks after application
Protocol: as §1, §3

transgenic sugar beet [5] = assay: Damage to transgenic sugar beet (field trial, Table 4); details: application in 3-leaf stage
Protocol: as §1, §3

Avena fatua = assay: Herbicidal action and selectivity in sugar beet crop (field trial, Table 5); details: application in the 3-5-leaf stage, scoring 4 weeks after application
Protocol: as §1, §3

transgenic sugar beet [6] = assay: Damage to transgenic sugar beet (field trial, Table 5); details: application in the 3-5-leaf stage
Protocol: as §1, §3

Galium aparine [7] = assay: Herbicidal action (field trial, Table 6); details: application in the 3-5-leaf stage, scoring 4 weeks after application
Protocol: as §1, §3

Kochia scoparia = assay: Herbicidal action (field trial, Table 6); details: application in the 3-5-leaf stage, scoring 4 weeks after application
Protocol: as §1, §3

Amaranthus retroflexus = assay: Herbicidal action (field trial, sequential treatment, Table 8); details: dose 200 g A.S./ha post-emergence at the 2-3-leaf stage; scorings 22 days after application
Protocol: as §1, §2

Setaria viridis [8] = assay: as above; details: dose 200 g A.S./ha post-emergence at the 2-3-leaf stage; scorings 22 days after application
Protocol: as §1, §2

In the case of CP(=O)(O)CCC(N)C(=O)O (stereo not shown) [(A1.2), glufosinate monoammonium salt], the “Herbicidal action in % against Setaria viridis” value (Setaria viridis [1]; dose 37.5 g A.S./ha) is reported as 35%, the “Herbicidal action in % against Setaria viridis” value (Setaria viridis [1]; dose 75 g A.S./ha) is reported as 85% and the “Herbicidal action in % against Setaria viridis” value (Setaria viridis [1]; dose 150 g A.S./ha) is reported as 95%. The “Herbicidal action in % against Setaria viridis” value (Setaria viridis [1]; dose 300 g A.S./ha) was 98%, the “Damage to transgenic sugar beet” value (transgenic sugar beet [2]; dose 37.5 g A.S./ha) was 0 and the “Damage to transgenic sugar beet” value (transgenic sugar beet [2]; dose 75 g A.S./ha) was 0. The “Damage to transgenic sugar beet” value (transgenic sugar beet [2]; dose 150 g A.S./ha) was 0, the “Damage to transgenic sugar beet” value (transgenic sugar beet [2]; dose 300 g A.S./ha) was 0 and the “Herbicidal action in % against Galium aparine” value (Galium aparine [3]; dose 125 g A.S./ha) was 45%. The “Herbicidal action in % against Galium aparine” value (Galium aparine [3]; dose 250 g A.S./ha) was 60%, the “Herbicidal action in % against Galium aparine” value (Galium aparine [3]; dose 500 g A.S./ha) was 85% and the “Damage to transgenic sugar beet” value (transgenic sugar beet [4]; dose 125 g A.S./ha) was 0. The “Damage to transgenic sugar beet” value (transgenic sugar beet [4]; dose 250 g A.S./ha) was 0, the “Damage to transgenic sugar beet” value (transgenic sugar beet [4]; dose 500 g A.S./ha) was 0 and the “Herbicidal action in % against Echinochloa crus-galli” value (Echinochloa crus-galli) was 45%. The “Herbicidal action in % against Echinochloa crus-galli” value (Echinochloa crus-galli; dose 10 g A.S./ha) was 60%, the “Herbicidal action in % against Echinochloa crus-galli” value (Echinochloa crus-galli; dose 65 g A.S./ha) was 85% and the “Damage to transgenic sugar beet” value (transgenic sugar beet [5]; dose 0 g A.S./ha) was 0. For the same molecule, the “Damage to transgenic sugar beet” value (transgenic sugar beet [5]; dose 10 g A.S./ha) was 0, the “Damage to transgenic sugar beet” value (transgenic sugar beet [5]; dose 65 g A.S./ha) was 0 and the “Herbicidal action in % against Avena fatua” value (Avena fatua; dose 150 g A.S./ha) was 30%. The “Herbicidal action in % against Avena fatua” value (Avena fatua; dose 300 g A.S./ha) was 65%, the “Herbicidal action in % against Avena fatua” value (Avena fatua; dose 600 g A.S./ha) was 95% and the “Damage to transgenic sugar beet” value (transgenic sugar beet [6]; dose 150 g A.S./ha) was 0. For the same molecule, the “Damage to transgenic sugar beet” value (transgenic sugar beet [6]; dose 300 g A.S./ha) was 0, the “Damage to transgenic sugar beet” value (transgenic sugar beet [6]; dose 600 g A.S./ha) was 0 and the “Herbicidal action in % against Galium aparine” value (Galium aparine [7]; dose 250 g A.S./ha) was 20%. For the same molecule, the “Herbicidal action in % against Galium aparine” value (Galium aparine [7]; dose 300 g A.S./ha) was 40%, the “Herbicidal action in % against Galium aparine” value (Galium aparine [7]; dose 600 g A.S./ha) was 85% and the “Herbicidal action in % against Kochia scoparia” value (Kochia scoparia; dose 250 g A.S./ha) was 30%. The “Herbicidal action in % against Kochia scoparia” value (Kochia scoparia; dose 300 g A.S./ha) was 52%, the “Herbicidal action in % against Kochia scoparia” value (Kochia scoparia; dose 600 g A.S./ha) was 75% and the “Herbicidal action in % against Amaranthus retroflexus” value (Amaranthus retroflexus) was 55%. For the same molecule, the “Herbicidal action in % against Setaria viridis” value (Setaria viridis [8]) was 60%.
